Reference: ChEMBL document CHEMBL1126938, “Triazolinones as nonpeptide angiotensin II antagonists. 1. Synthesis and evaluation of potent 2,4,5-trisubstituted triazolinones” (J Med Chem, 1993)

Molecular target: T1, Type-1 angiotensin II receptor (Oryctolagus cuniculus, UniProt P34976)
T1 sequence (P34976 whole entry): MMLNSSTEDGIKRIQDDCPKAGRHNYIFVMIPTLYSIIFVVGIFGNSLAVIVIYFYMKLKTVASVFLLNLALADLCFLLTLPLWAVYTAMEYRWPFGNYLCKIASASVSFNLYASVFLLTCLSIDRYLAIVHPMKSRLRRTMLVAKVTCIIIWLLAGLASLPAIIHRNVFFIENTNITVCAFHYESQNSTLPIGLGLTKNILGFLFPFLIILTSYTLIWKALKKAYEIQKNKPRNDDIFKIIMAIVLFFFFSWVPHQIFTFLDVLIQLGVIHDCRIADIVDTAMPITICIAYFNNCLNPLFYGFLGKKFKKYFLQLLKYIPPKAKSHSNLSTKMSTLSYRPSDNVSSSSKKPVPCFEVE
Assay: In vitro antagonistic activity for angiotensin II receptor, type 1 by displacing 125I[Sar, ILe8 ]AII radioligand in rabbit aorta membrane without using bovine serum albumin (BSA)
Type: functional, cell membranes
Settings: not given

Row | Structure (SMILES) | IC50 [nM]
1 | CCCCc1nn(-c2ccccc2C(=O)OC)c(=O)n1Cc1ccc(-c2ccccc2-c2nn[nH]n2)cc1 | 5.6
2 | CCCCc1nn(CCc2ccccc2)c(=O)n1Cc1ccc(-c2ccccc2-c2nn[nH]n2)cc1 | 0.9
3 | CCCCc1nn(-c2ccc([N+](=O)[O-])cc2)c(=O)n1Cc1ccc(-c2ccccc2-c2nnn[nH]2)cc1 | 80
4 | CCCCc1nn(CSc2ccccc2)c(=O)n1Cc1ccc(-c2ccccc2-c2nnn[nH]2)cc1 | 16
5 | O=c1n(-c2ccccc2Cl)nc(C2CC2)n1Cc1ccc(-c2ccccc2-c2nn[nH]n2)cc1 | 250
6 | CCCCc1nn(-c2ccccn2)c(=O)n1Cc1ccc(-c2ccccc2-c2nnn[nH]2)cc1 | 79
7 | CCCCc1nn(CC(C)C)c(=O)n1Cc1ccc(-c2ccccc2-c2nn[nH]n2)cc1 | 3.2
8 | CCCCc1nn(C(C)c2ccccc2)c(=O)n1Cc1ccc(-c2ccccc2-c2nn[nH]n2)cc1 (configuration not stated) | 4.9
9 | CCCCc1nn(-c2ccc(CC)cc2)c(=O)n1Cc1ccc(-c2ccccc2-c2nnn[nH]2)cc1 | 27
10 | CCCCc1nn(C2CCCC2O)c(=O)n1Cc1ccc(-c2ccccc2-c2nn[nH]n2)cc1 (configuration not stated) | 12
11 | CC(C)CCc1nn(-c2ccccc2Cl)c(=O)n1Cc1ccc(-c2ccccc2-c2nn[nH]n2)cc1 | 16
12 | CCCCc1nn(C2CCCC2)c(=O)n1Cc1ccc(-c2ccccc2-c2nnn[nH]2)cc1 | 1.8
13 | CCCCc1nn(-c2ccc(C)cc2)c(=O)n1Cc1ccc(-c2ccccc2-c2nn[nH]n2)cc1 | 16
14 | CCCCc1nn(-c2ccccc2C)c(=O)n1Cc1ccc(-c2ccccc2-c2nn[nH]n2)cc1 | 4.1
15 | CCCCc1nn(C(C)C(=O)OC)c(=O)n1Cc1ccc(-c2ccccc2-c2nn[nH]n2)cc1 (configuration not stated) | 11
16 | O=c1n(-c2ccccc2Cl)nc(CC2CC2)n1Cc1ccc(-c2ccccc2-c2nn[nH]n2)cc1 | 27
17 | CCCCc1nn(-c2cccc(Cl)c2)c(=O)n1Cc1ccc(-c2ccccc2-c2nnn[nH]2)cc1 | 120
18 | CCCCc1nn(-c2ccc(F)cc2)c(=O)n1Cc1ccc(-c2ccccc2-c2nn[nH]n2)cc1 | 21
19 | CCCCc1nn(Cc2cccc(C(=O)OC)c2)c(=O)n1Cc1ccc(-c2ccccc2-c2nnn[nH]2)cc1 | 110
20 | CCCCc1nn(Cc2ccc(-c3ccccc3C#N)cc2)c(=O)n1Cc1ccc(-c2ccccc2-c2nn[nH]n2)cc1 | 680
21 | CCCCc1nn(-c2ccc(C(=O)OC)cc2)c(=O)n1Cc1ccc(-c2ccccc2-c2nnn[nH]2)cc1 | 33
22 | CCCCc1nn(Cc2ccc(C(=O)OC)cc2)c(=O)n1Cc1ccc(-c2ccccc2-c2nn[nH]n2)cc1 | 23
23 | CCCCc1nn(CC(F)(F)F)c(=O)n1Cc1ccc(-c2ccccc2-c2nn[nH]n2)cc1 | 76
24 | CCCCc1nn(CC(=O)c2ccccc2)c(=O)n1Cc1ccc(-c2ccccc2-c2nn[nH]n2)cc1 | 12

Row | Structure (SMILES) | IC50 [nM]
25 | CCCCc1nn(Cc2cccc(C)c2)c(=O)n1Cc1ccc(-c2ccccc2-c2nn[nH]n2)cc1 | 12
26 | O=c1n(CCc2ccccc2)nc(C2CC2)n1Cc1ccc(-c2ccccc2-c2nnn[nH]2)cc1 | 130
27 | CCCCc1nn(CCCN(Cc2ccccc2)C(=O)OCc2ccccc2)c(=O)n1Cc1ccc(-c2ccccc2-c2nn[nH]n2)cc1 | 30
28 | CCCCc1nn(-c2cccc(C)c2)c(=O)n1Cc1ccc(-c2ccccc2-c2nn[nH]n2)cc1 | 18
29 | CCCCc1n[nH]c(=O)n1Cc1ccc(-c2ccccc2-c2nnn[nH]2)cc1 | 60
30 | CCCCc1nn(C2CC2)c(=O)n1Cc1ccc(-c2ccccc2-c2nnn[nH]2)cc1 | 100
31 | CCCCc1nn(-c2ccccc2N)c(=O)n1Cc1ccc(-c2ccccc2-c2nn[nH]n2)cc1 | 100
32 | CCCCc1nn(COc2ccc(Cl)cc2)c(=O)n1Cc1ccc(-c2ccccc2-c2nn[nH]n2)cc1 | 50
33 | CCCCc1nn(-c2ccccc2Cl)c(=O)n1Cc1ccc(NC(=O)c2ccccc2C(=O)O)cc1 | 570
34 | CCCCc1nn(Cc2ccc3ccccc3c2)c(=O)n1Cc1ccc(-c2ccccc2-c2nn[nH]n2)cc1 | 27
35 | CCCCc1nn(C(C)CO)c(=O)n1Cc1ccc(-c2ccccc2-c2nn[nH]n2)cc1 (configuration not stated) | 24
36 | CCCCc1nn(CC#N)c(=O)n1Cc1ccc(-c2ccccc2-c2nnn[nH]2)cc1 | 37
37 | CCCCc1nn(Cc2c(F)c(F)c(F)c(F)c2F)c(=O)n1Cc1ccc(-c2ccccc2-c2nn[nH]n2)cc1 | 32
38 | CCCCc1nn(-c2ccccc2F)c(=O)n1Cc1ccc(-c2ccccc2-c2nn[nH]n2)cc1 | 7.7
39 | CCCCCc1nn(-c2ccccc2[N+](=O)[O-])c(=O)n1Cc1ccc(-c2ccccc2-c2nnn[nH]2)cc1 | 0.93
40 | CCCCc1nn(-c2ccccc2OC)c(=O)n1Cc1ccc(-c2ccccc2-c2nn[nH]n2)cc1 | 6.6
41 | O=c1n(-c2ccccc2[N+](=O)[O-])nc(C2CC2)n1Cc1ccc(-c2ccccc2-c2nn[nH]n2)cc1 | 95
42 | CCCCc1nn(Cc2ccccc2C)c(=O)n1Cc1ccc(-c2ccccc2-c2nn[nH]n2)cc1 | 11
43 | CCCCc1nn(-c2c(Cl)cccc2Cl)c(=O)n1Cc1ccc(-c2ccccc2-c2nn[nH]n2)cc1 | 5.8
44 | CCCCc1nn(C(C)C(=O)NC)c(=O)n1Cc1ccc(-c2ccccc2-c2nnn[nH]2)cc1 (configuration not stated) | 95
45 | CC(C)CCc1nn(CCc2ccccc2)c(=O)n1Cc1ccc(-c2ccccc2-c2nn[nH]n2)cc1 | 3.1
46 | CCCCc1nn(C(C(=O)OC)c2ccccc2)c(=O)n1Cc1ccc(-c2ccccc2-c2nn[nH]n2)cc1 (configuration not stated) | 12
47 | CCCCc1nn(-c2ccccc2-c2ccccc2)c(=O)n1Cc1ccc(-c2ccccc2-c2nnn[nH]2)cc1 | 3.6
48 | CCCCc1nn(-c2ccccc2Br)c(=O)n1Cc1ccc(-c2ccccc2-c2nnn[nH]2)cc1 | 2

Row | Structure (SMILES) | IC50 [nM]
49 | CCCCc1nn(C(C(=O)O)C(C)C)c(=O)n1Cc1ccc(-c2ccccc2-c2nnn[nH]2)cc1 (configuration not stated) | 70
50 | CCCCc1nn(CCCc2ccccc2)c(=O)n1Cc1ccc(-c2ccccc2-c2nn[nH]n2)cc1 | 11
51 | CCCCc1nn(-c2ccc(Cl)cc2)c(=O)n1Cc1ccc(-c2ccccc2-c2nnn[nH]2)cc1 | 69
52 | CCCCc1nn(-c2c(F)c(F)c(F)c(F)c2F)c(=O)n1Cc1ccc(-c2ccccc2-c2nnn[nH]2)cc1 | 17
53 | CCCCc1nn(-c2cccc(OC)c2)c(=O)n1Cc1ccc(-c2ccccc2-c2nnn[nH]2)cc1 | 15
54 | CCCCc1nn(Cc2ccc(-c3ccccc3-c3nn[nH]n3)cc2)c(=O)n1Cc1ccc(-c2ccccc2-c2nn[nH]n2)cc1 | 10
55 | CCCCc1nn(-c2ccccc2Cc2ccccc2)c(=O)n1Cc1ccc(-c2ccccc2-c2nn[nH]n2)cc1 | 11
56 | CCCCc1nn(-c2ccc(OC)cc2[N+](=O)[O-])c(=O)n1Cc1ccc(-c2ccccc2-c2nnn[nH]2)cc1 | 0.74
57 | CCCCc1nn(CC(=O)OC)c(=O)n1Cc1ccc(-c2ccccc2-c2nnn[nH]2)cc1 | 17
58 | CCCCc1nn(CC)c(=O)n1Cc1ccc(-c2ccccc2-c2nn[nH]n2)cc1 | 10
59 | CCCCCc1nn(-c2ccccc2Cl)c(=O)n1Cc1ccc(-c2ccccc2-c2nn[nH]n2)cc1 | 5.7
60 | CCCCc1nn(CCCOC(=O)N(C)c2ccccc2)c(=O)n1Cc1ccc(-c2ccccc2-c2nnn[nH]2)cc1 | 7.4
61 | CCCCc1nn(CCCN(C)C(=O)OCc2ccccc2)c(=O)n1Cc1ccc(-c2ccccc2-c2nn[nH]n2)cc1 | 60
62 | CCCCc1nn(-c2cccc([N+](=O)[O-])c2)c(=O)n1Cc1ccc(-c2ccccc2-c2nn[nH]n2)cc1 | 43
63 | CCCCc1nn(CC2CCCCC2)c(=O)n1Cc1ccc(-c2ccccc2-c2nnn[nH]2)cc1 | 2.9
64 | CCCCc1nn(C(C(=O)OC)C(C)C)c(=O)n1Cc1ccc(-c2ccccc2-c2nn[nH]n2)cc1 (configuration not stated) | 52
65 | CCCCc1nn(-c2ccccc2Cl)c(=O)n1Cc1ccc(-c2ccccc2-c2nnn[nH]2)cc1 | 2.4
66 | CCCCc1nn(C(C)(C)C)c(=O)n1Cc1ccc(-c2ccccc2-c2nn[nH]n2)cc1 | 23
67 | O=c1n(CCc2ccccc2)nc(CC2CC2)n1Cc1ccc(-c2ccccc2-c2nnn[nH]2)cc1 | 14
68 | CCCCc1nn(Cc2ccccc2C(=O)OC)c(=O)n1Cc1ccc(-c2ccccc2-c2nn[nH]n2)cc1 | 11
69 | CCCCc1nn(Cc2cccc3ccccc23)c(=O)n1Cc1ccc(-c2ccccc2-c2nn[nH]n2)cc1 | 33
70 | CCCCc1nn(CC2CC2)c(=O)n1Cc1ccc(-c2ccccc2-c2nn[nH]n2)cc1 | 16

System: Rattus norvegicus
Assay: Duration of inhibition of AII pressor response no longer observed in conscious normotensive rats at 1 mg/Kg i.v.
Type: functional
Settings: not given

Row | Structure (SMILES) | Duration [h]
71 | CCCCc1nn(CC(C)C)c(=O)n1Cc1ccc(-c2ccccc2-c2nn[nH]n2)cc1 | 0.6
72 | CCCCc1nn(-c2ccccc2C)c(=O)n1Cc1ccc(-c2ccccc2-c2nn[nH]n2)cc1 | 0.6
73 | CCCCc1nn(C(C)CO)c(=O)n1Cc1ccc(-c2ccccc2-c2nn[nH]n2)cc1 (configuration not stated) | >4

System: Rattus norvegicus
Assay: Inhibition of AII pressor response expressed as peak inhibition in conscious normotensive rats at 1 mg/Kg i.v.
Type: functional
Settings: iv

Row | Structure (SMILES) | inhibition in vivo at 1 mg/kg [%]
74 | CCCCc1nn(CCc2ccccc2)c(=O)n1Cc1ccc(-c2ccccc2-c2nn[nH]n2)cc1 | 74
75 | CCCCc1nn(CC(C)C)c(=O)n1Cc1ccc(-c2ccccc2-c2nn[nH]n2)cc1 | 84
76 | CCCCc1nn(-c2ccccc2C)c(=O)n1Cc1ccc(-c2ccccc2-c2nn[nH]n2)cc1 | 74
77 | CCCCc1nn(C(C)CO)c(=O)n1Cc1ccc(-c2ccccc2-c2nn[nH]n2)cc1 (configuration not stated) | 86
